Source: patent US4820873A, “Pyrene derivatives” (priority 1984, dated 1989)
Structures can show the parent of a compound that is named as a salt.

Experiments:
[1] = LD20 in the P388/0 test; type: in vivo, CD2-F1 mice; design: LD20: dose in mg/kg body weight; details: intraperitoneal, days 1, 5, 9, doses are on a mg/kg basis
Description: CD2-F1 mice, of the same sex, weighing 20±3 g, are used for this test. Control and test animals are injected intraperitoneally with a suspension of ~10^6 viable P388/0 tumor cells on day 0. In each test, several dose levels which bracket the LD20 of the compound are evaluated; each dose level group contains 6 animals. The test compounds are prepared either in physiologic saline containing 0.05% Tween 80 or distilled water containing 5% dextrose and are administered intraperitoneally on days 1, 5, and 9 relative to tumor implant. Doses are on a mg/kg basis according to individual animals' body weights. The day of death for each animal is recorded, the median identified for each group and the ratios of median survival time for treated (T)/control (C) groups are calculated. The criterion for activity is T/C×100≥120%.

[2] = test system: Brugia pahangi microfilaria; assay: Screening against Brugia pahangi microfilaria (in vitro); type: cell-based
Source text: Anthelmintic testing against Brugia pahangi was done using methods outlined in D. A. Denham et al., Transactions of the Royal Society of Tropical Medicine and Hygiene 73, 673-676 (1979).

[3] = test system: Mycoplasma smegmatis (S3264); assay: Antibacterial screening, Mycoplasma smegmatis, agar dilution assay; type: cell-based
Source text: (§1) Antibacterial testing against Mycoplasma smegmatis (S3264) and Streptococcus pyogens (CN10) was done with slight modifications using standard agar dilution assays as outlined in Manual of Clinical Microbiology, Second Ed., E. H. Lennette, E. H. Spaulding and J. P. Truant Eds., American Society for Microbiology, Washington, DC, 1974.

[4] = test system: Nippostrongylus brasiliensis (Immature - free living stages); assay: Anthelmintic screening, Nippostrongylus brasiliensis; type: cell-based
Source text: Anthelmintic testing against Nippostrongylus brasiliensis was done using methods as outlined in D. C. Jenkins, R. Armitage, and T. S. Carrington, Zetschrift fur Parasitenkunde 63, 261-269 (1980).

[5] = test system: Streptococcus pyogenes (CN10); assay: Antibacterial testing, Streptococcus pyogenes, agar dilution assay; type: cell-based
Source text: as §1

[6] = test system: Candida albicans (CN1863); assay: Antifungal screening, Candida albicans, broth and agar dilution assays; type: cell-based; details: Medium: Wellcotest sensitivity test agar plus 7% lysed horse blood
Source text: Antifungal testing against Candida albicans (CN1863) was done with slight modifications using a combination of broth and agar dilution assays as outlined in Laboratory Handbook of Medical Mycology, Chapter 6, pages 441-446, M. R. McGinnis, Academic Press, New York, NY, 1980.
Medium: Wellcotest* sensitivity test agar plus 7% lysed horse blood.

[7] = test system: Trichomonas vaginalis; assay: Antiprotozoal testing, Trichomonas vaginalis (in vitro); type: cell-based; details: Stenton or Modified Diamond's medium, read-out: Result (screen code, inhibition); for inhibition at 40 µg/mL: 40 mg/L
Source text: Antiprotozoal testing against Trichomonas vaginalis was done using methods outlined by R. M. Michaels in Advances in Chemotherapy, 3, 39-108 (1968).
(Stenton or Modified Diamond's medium)

[8] = LD50 Tests; details: in vivo; IP single dose - CD1 Male Mouse
Source text: |(IP single dose - CD1 Male Mouse)

[9] = test system: Eimeria tenella; assay: Antiprotozoal screening, Eimeria tenella (in vitro); type: cell-based; details: in vitro, read-out: Result (screen code, inhibition); for inhibition at 5 µg/mL: 5 mg/L
Source text: Antiprotozoal testing against Eimeria tenella was done using methods outlined in V. S. Latter and D. Wilson, Parasitology 79, 169 (1979).

Row | SMILES | LD20 [1] | MIC [3] [µg/mL] | MIC [4] [µg/mL] | MIC [5] [µg/mL] | MIC [6] [µg/mL] | also measured
1 | C[C@H](O)[C@@](C)(CO)NCc1ccc2ccc3cccc4ccc1c2c34 (relative stereo) [Example 20G, (+-)(2R*,3S*)-2-((1-Pyrenylmethyl)amino)-2-methyl-1,3-butanediol hydrochloride] | 125 | – | – | – | – | –
2 | CC(C)(CO)NCc1ccc2ccc3cccc4ccc1c2c34 [Example 2B, 2-Methyl-2-((1-pyrenylmethyl)amino)propanol] | 450 | – | – | – | – | –
3 | OCCCNCc1ccc2ccc3cccc4ccc1c2c34 [Example 3, 3-((1-pyrenylmethyl)amino)propanol hydrochloride] | 450 | < 5 | 1 | 10 | 30 | MIC [2]: 0.78 µg/mL; inhibition at 0.78 µg/mL ([2]; 0.78 mg/L, read-out: Result (screen code, inhibition)): 76 to 100%; inhibition at 6.25 µg/mL ([7]; 6.25 mg/L): 76 to 100%
4 | CC(C)C(CO)NCc1ccc2ccc3cccc4ccc1c2c34 (stereo not shown) [Example 4, 3-Methyl-2-((1-pyrenylmethyl)amino)butanol hydrochloride] | 450 | – | 10 | – | – | inhibition at 12.5 µg/mL ([2]; 12.5 mg/L, read-out: Result (screen code, inhibition)): 26 to 50%
5 | CC(CO)NCc1ccc2ccc3cccc4ccc1c2c34 (stereo not shown) [Example 7, 2-((1-Pyrenylmethyl)amino)propanol hydrochloride] | 600 | ≤ 5 | – | – | 50 | –
6 | CC(O)CNCc1ccc2ccc3cccc4ccc1c2c34 (stereo not shown) [Example 8, 1-((1-pyrenylmethyl)amino)-2-propanol hydrochloride] | 600 | 10 | – | – | 50 | –
7 | CCC(O)CNCc1ccc2ccc3cccc4ccc1c2c34 (stereo not shown) [Example 9, 1-((1-Pyrenylmethyl)amino)-2-butanol hydrochloride] | – | 10 | 50 | 10 | 10 | LD50 [8]: 350 mg/kg; inhibition at 40 µg/mL [7]: 26 to 50%
8 | OCC(CO)NCc1ccc2ccc3cccc4ccc1c2c34 [Example 11, 2-((1-Pyrenylmethyl)amino)-1,3-propanediol hydrochloride] | 450 | 10 | ≥ 50 | 5 | 50 | inhibition at 5 µg/mL [9]: 76 to 100%; LD50 [8]: 250 mg/kg; inhibition at 40 µg/mL [7]: 76 to 100%
9 | OCCNCc1ccc2ccc3cccc4ccc1c2c34 [Example 13, 2-((1-Pyrenylmethyl)amino)ethanol hydrochloride] | 220 | 5 | 50 | 5 | 10 | inhibition at 5 µg/mL [9]: 26 to 50%; LD50 [8]: 160 mg/kg
10 | CC(O)CCNCc1ccc2ccc3cccc4ccc1c2c34 (stereo not shown) [Example 14, 4-((1-Pyrenylmethyl)amino)-2-butanol hydrochloride] | – | 10 | 50 | ≤ 5 | 50 | inhibition at 0.31 µg/mL ([9]; 0.31 mg/L): 26 to 50%; LD50 [8]: 130 mg/kg
11 | CC(=O)OCC(COC(C)=O)(COC(C)=O)NCc1ccc2ccc3cccc4ccc1c2c34 [Example 15, 2-Acetoxymethyl-1,3,-O-diacetyl-2-((1-pyrenylmethyl)amino)-1,3-propanediol] | – | ≤ 10 | – | – | > 50 | MTD ([1]; mouse, in vivo, ip, read-out: highest nontoxic dose (LD20 column, values in parentheses; LD20 was not determined)): 500 mg/kg
12 | CC(CO)(CO)NCc1cc2cccc3ccc4cccc1c4c32 [Example 19, 2-methyl-2-((4-pyrenylmethyl)amino)-1,3-propanediol hydrochloride.1/4H2 O] | 45 | 10 | – | – | 30 | –
13 | CCOCC(CO)(CO)NCc1ccc2ccc3cccc4ccc1c2c34 [Example 21C, 2-Ethoxymethyl-2-((1-pyrenylmethyl)amino)-1,3-propanediol hydrochloride 1/3H2 O] | 225 | – | – | – | – | –
14 | COCC(C)(CO)NCc1ccc2ccc3cccc4ccc1c2c34 (stereo not shown) [Example 22D, 3-methoxy-2-methyl-2-((1-pyrenylmethyl)amino)-1-propanol methanesulfonate.1/3H2 O] | 135 | – | – | – | – | –
15 | O[C@@H]1CCC[C@H](O)[C@H]1NCc1ccc2ccc3cccc4ccc1c2c34 [Example 23B, (1α,2β,3α)-2-((1-Pyrenylmethyl)amino)-1,3-cyclohexanediolmethanesulfonate] | 180 | – | – | – | – | –
